Experimental data: PubChem BioAssay (NCI)
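Grown in 96-well plates, cells were treated for 48 hours with each compound at five concentrations. Insufficient inhibition: endpoint recorded as highest concentration tested. Definition used: TGI = concentration required for complete inhibition of growth.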

Columns and labels:
Experiment in all cases: NCI anticancer screen, dose series, 48 h
[1] = tested on: TK-10 renal
[2] = tested on: CCRF-CEM leukemia
[3] = tested on: RPMI-8226 leukemia
[4] = tested on: NCI-H23 lung
[5] = tested on: MOLT-4 leukemia
[6] = tested on: KM12 colon
[7] = tested on: MALME-3M melanoma
[8] = tested on: COLO 205 colon
[9] = tested on: DMS 114 small cell lung
[10] = tested on: DMS 273 small cell lung
[11] = tested on: SNB-78 CNS
[12] = tested on: IGROV1 ovarian
[13] = tested on: SNB-19 CNS
[14] = tested on: SW-620 colon
[15] = tested on: SK-MEL-2 melanoma
[16] = tested on: SF-268 CNS
[17] = tested on: OVCAR-3 ovarian
[18] = tested on: LXFL 529 NSCLC
[19] = tested on: HOP-62 NSCLC
[20] = tested on: HL-60(TB) leukemia
[21] = tested on: OVCAR-8 ovarian
[22] = tested on: UACC-62 melanoma
[23] = tested on: ACHN renal
[24] = tested on: SK-MEL-28 melanoma
[25] = tested on: UO-31 renal
[26] = tested on: A498 renal
[27] = tested on: OVCAR-4 ovarian
[28] = tested on: 786-0 renal
[29] = tested on: SF-539 CNS
[30] = tested on: NCI-H460 lung
[31] = tested on: HOP-92 NSCLC
[32] = tested on: A549 NSCLC
[33] = tested on: HCC-2998 colon
[34] = tested on: LOX IMVI melanoma
[35] = tested on: HT29 colon
[36] = tested on: HCT-15 colon
[37] = tested on: NCI-H226 lung
[38] = tested on: SR leukemia
[39] = tested on: CAKI-1 renal
[40] = tested on: U251 CNS
[41] = tested on: DLD-1 colon
[42] = tested on: SF-295 CNS
[43] = tested on: UACC-257 melanoma
[44] = tested on: SN12C renal
[45] = tested on: XF 498 CNS
[46] = tested on: M14 melanoma
[47] = tested on: NCI-H522 lung
[48] = tested on: HCT-116 colon
[49] = tested on: EKVX NSCLC
[50] = tested on: KM20L2 colon
[51] = tested on: SK-MEL-5 melanoma
[52] = tested on: K-562 leukemia
[53] = tested on: OVCAR-5 ovarian
[54] = tested on: RXF 393 renal
[55] = tested on: M19-MEL melanoma
[56] = tested on: SK-OV-3 ovarian
[57] = tested on: SNB-75 CNS
[58] = tested on: HOP-18 NSCLC

## Cc1cc(C)nc(Nc2nc3ccc([N+](=O)[O-])cc3[nH]2)n1
[1]
  TGI: > 100 µM
[2]
  TGI: > 100 µM
[3]
  TGI: > 100 µM
[4]
  TGI: > 100 µM
[5]
  TGI: > 100 µM
[6]
  TGI: > 100 µM
[7]
  TGI: > 100 µM
[8]
  TGI: > 100 µM
[9]
  TGI: > 100 µM
[10]
  TGI: > 100 µM
[11]
  TGI: > 100 µM
[12]
  TGI: > 100 µM
[13]
  TGI: > 100 µM
[14]
  TGI: > 100 µM
[15]
  TGI: > 100 µM
[16]
  TGI: > 100 µM
[17]
  TGI: > 100 µM
[18]
  TGI: > 100 µM
[19]
  TGI: > 100 µM
[20]
  TGI: > 100 µM
[21]
  TGI: > 100 µM
[22]
  TGI: > 100 µM
[23]
  TGI: > 100 µM
[24]
  TGI: > 100 µM
[25]
  TGI: > 100 µM
[26]
  TGI: > 100 µM
[27]
  TGI: > 100 µM
[28]
  TGI: > 100 µM
[29]
  TGI: > 100 µM
[30]
  TGI: > 100 µM
[31]
  TGI: > 100 µM
[32]
  TGI: > 100 µM
[33]
  TGI: > 100 µM
[34]
  TGI: > 100 µM
[35]
  TGI: > 100 µM
[36]
  TGI: > 100 µM
[37]
  TGI: > 100 µM
[38]
  TGI: > 100 µM
[39]
  TGI: > 100 µM
[40]
  TGI: > 100 µM
[41]
  TGI: > 100 µM
[42]
  TGI: > 100 µM
[43]
  TGI: > 100 µM
[44]
  TGI: > 100 µM
[45]
  TGI: > 100 µM
[46]
  TGI: > 100 µM
[47]
  TGI: > 100 µM
[48]
  TGI: > 100 µM
[49]
  TGI: > 100 µM
[50]
  TGI: > 100 µM
[51]
  TGI: > 100 µM
[52]
  TGI: > 100 µM
[53]
  TGI: > 100 µM

## CCOC(=O)c1ccc(N2C(=O)/C(=C\OC)c3ccccc3C2=O)cc1
[1]
  TGI: > 100 µM
[54]
  TGI: 61.3 µM
[3]
  TGI: > 100 µM
[4]
  TGI: > 100 µM
[5]
  TGI: 89.3 µM
[6]
  TGI: > 100 µM
[7]
  TGI: > 100 µM
[8]
  TGI: > 100 µM
[9]
  TGI: > 100 µM
[10]
  TGI: > 100 µM
[11]
  TGI: > 100 µM
[12]
  TGI: > 100 µM
[13]
  TGI: > 100 µM
[14]
  TGI: > 100 µM
[55]
  TGI: > 100 µM
[15]
  TGI: > 100 µM
[16]
  TGI: > 100 µM
[17]
  TGI: > 100 µM
[18]
  TGI: 89.1 µM
[21]
  TGI: > 100 µM
[22]
  TGI: > 100 µM
[23]
  TGI: > 100 µM
[24]
  TGI: > 100 µM
[25]
  TGI: 62.8 µM
[27]
  TGI: > 100 µM
[28]
  TGI: > 100 µM
[29]
  TGI: > 100 µM
[32]
  TGI: > 100 µM
[33]
  TGI: > 100 µM
[35]
  TGI: > 100 µM
[36]
  TGI: > 100 µM
[37]
  TGI: > 100 µM
[38]
  TGI: > 100 µM
[56]
  TGI: 41.9 µM
[39]
  TGI: > 100 µM
[40]
  TGI: > 100 µM
[42]
  TGI: > 100 µM
[43]
  TGI: > 100 µM
[44]
  TGI: > 100 µM
[57]
  TGI: > 100 µM
[47]
  TGI: > 100 µM
[48]
  TGI: > 100 µM
[49]
  TGI: > 100 µM
[50]
  TGI: > 100 µM
[51]
  TGI: > 100 µM
[52]
  TGI: > 100 µM
[53]
  TGI: > 100 µM

## ON=C1CCC(c2ccccc2)CC1 (stereo unspecified)
[1]
  TGI: > 100 µM
[54]
  TGI: > 100 µM
[2]
  TGI: > 100 µM
[4]
  TGI: > 100 µM
[6]
  TGI: > 100 µM
[7]
  TGI: > 100 µM
[8]
  TGI: > 100 µM
[9]
  TGI: > 100 µM
[10]
  TGI: > 100 µM
[11]
  TGI: > 100 µM
[12]
  TGI: > 100 µM
[13]
  TGI: > 100 µM
[14]
  TGI: > 100 µM
[55]
  TGI: > 100 µM
[15]
  TGI: > 100 µM
[16]
  TGI: > 100 µM
[17]
  TGI: > 100 µM
[18]
  TGI: > 100 µM
[19]
  TGI: > 100 µM
[20]
  TGI: > 100 µM
[21]
  TGI: > 100 µM
[22]
  TGI: > 100 µM
[23]
  TGI: > 100 µM
[24]
  TGI: > 100 µM
[25]
  TGI: > 100 µM
[26]
  TGI: > 100 µM
[27]
  TGI: > 100 µM
[28]
  TGI: > 100 µM
[29]
  TGI: > 100 µM
[30]
  TGI: > 100 µM
[31]
  TGI: > 100 µM
[32]
  TGI: > 100 µM
[33]
  TGI: > 100 µM
[34]
  TGI: > 100 µM
[35]
  TGI: > 100 µM
[36]
  TGI: > 100 µM
[37]
  TGI: > 100 µM
[56]
  TGI: > 100 µM
[39]
  TGI: > 100 µM
[40]
  TGI: > 100 µM
[41]
  TGI: > 100 µM
[42]
  TGI: > 100 µM
[43]
  TGI: > 100 µM
[44]
  TGI: > 100 µM
[58]
  TGI: > 100 µM
[45]
  TGI: > 100 µM
[57]
  TGI: > 100 µM
[46]
  TGI: > 100 µM
[47]
  TGI: > 100 µM
[48]
  TGI: > 100 µM
[49]
  TGI: > 100 µM
[50]
  TGI: > 100 µM
[51]
  TGI: > 100 µM
[52]
  TGI: > 100 µM
[53]
  TGI: > 100 µM

## COC(=O)C1=C(O)C(O)=C(C(=O)OC)C1
[1]
  TGI: > 100 µM
[54]
  TGI: > 100 µM
[2]
  TGI: > 100 µM
[3]
  TGI: > 100 µM
[4]
  TGI: > 100 µM
[5]
  TGI: > 100 µM
[6]
  TGI: > 100 µM
[7]
  TGI: > 100 µM
[8]
  TGI: > 100 µM
[9]
  TGI: > 100 µM
[10]
  TGI: > 100 µM
[11]
  TGI: > 100 µM
[12]
  TGI: > 100 µM
[13]
  TGI: > 100 µM
[14]
  TGI: > 100 µM
[55]
  TGI: > 100 µM
[15]
  TGI: > 100 µM
[16]
  TGI: > 100 µM
[17]
  TGI: > 100 µM
[18]
  TGI: > 100 µM
[19]
  TGI: > 100 µM
[20]
  TGI: > 100 µM
[21]
  TGI: > 100 µM
[22]
  TGI: > 100 µM
[23]
  TGI: > 100 µM
[24]
  TGI: > 100 µM
[25]
  TGI: > 100 µM
[26]
  TGI: > 100 µM
[27]
  TGI: > 100 µM
[28]
  TGI: > 100 µM
[29]
  TGI: > 100 µM
[30]
  TGI: > 100 µM
[31]
  TGI: > 100 µM
[32]
  TGI: > 100 µM
[33]
  TGI: > 100 µM
[34]
  TGI: > 100 µM
[35]
  TGI: > 100 µM
[36]
  TGI: > 100 µM
[37]
  TGI: > 100 µM
[56]
  TGI: > 100 µM
[39]
  TGI: > 100 µM
[40]
  TGI: > 100 µM
[41]
  TGI: > 100 µM
[42]
  TGI: > 100 µM
[43]
  TGI: > 100 µM
[44]
  TGI: > 100 µM
[58]
  TGI: > 100 µM
[57]
  TGI: > 100 µM
[46]
  TGI: > 100 µM
[47]
  TGI: > 100 µM
[48]
  TGI: > 100 µM
[49]
  TGI: > 100 µM
[50]
  TGI: > 100 µM
[51]
  TGI: > 100 µM
[52]
  TGI: > 100 µM
[53]
  TGI: > 100 µM
